Assay [1] addresses Serine/threonine-protein kinase MRCK alpha (Homo sapiens) (UniProt Q5VT25). Nature of the assay: Selectivity interaction (Upstate Kinase Profiler service (Millipore)) EUB0000056c CDC42BPA. The conditions noted are these: at 1 µM.
In assay [2] the target is Mitogen-activated protein kinase 10 (Homo sapiens, UniProt P53779). Nature of the assay: Selectivity interaction (ProQinase) EUB0000171b MAPK10.
Assay [3] has as its target T1, Serine/threonine-protein kinase D2 (Homo sapiens) (UniProt Q9BZL6).
T1 sequence (whole entry): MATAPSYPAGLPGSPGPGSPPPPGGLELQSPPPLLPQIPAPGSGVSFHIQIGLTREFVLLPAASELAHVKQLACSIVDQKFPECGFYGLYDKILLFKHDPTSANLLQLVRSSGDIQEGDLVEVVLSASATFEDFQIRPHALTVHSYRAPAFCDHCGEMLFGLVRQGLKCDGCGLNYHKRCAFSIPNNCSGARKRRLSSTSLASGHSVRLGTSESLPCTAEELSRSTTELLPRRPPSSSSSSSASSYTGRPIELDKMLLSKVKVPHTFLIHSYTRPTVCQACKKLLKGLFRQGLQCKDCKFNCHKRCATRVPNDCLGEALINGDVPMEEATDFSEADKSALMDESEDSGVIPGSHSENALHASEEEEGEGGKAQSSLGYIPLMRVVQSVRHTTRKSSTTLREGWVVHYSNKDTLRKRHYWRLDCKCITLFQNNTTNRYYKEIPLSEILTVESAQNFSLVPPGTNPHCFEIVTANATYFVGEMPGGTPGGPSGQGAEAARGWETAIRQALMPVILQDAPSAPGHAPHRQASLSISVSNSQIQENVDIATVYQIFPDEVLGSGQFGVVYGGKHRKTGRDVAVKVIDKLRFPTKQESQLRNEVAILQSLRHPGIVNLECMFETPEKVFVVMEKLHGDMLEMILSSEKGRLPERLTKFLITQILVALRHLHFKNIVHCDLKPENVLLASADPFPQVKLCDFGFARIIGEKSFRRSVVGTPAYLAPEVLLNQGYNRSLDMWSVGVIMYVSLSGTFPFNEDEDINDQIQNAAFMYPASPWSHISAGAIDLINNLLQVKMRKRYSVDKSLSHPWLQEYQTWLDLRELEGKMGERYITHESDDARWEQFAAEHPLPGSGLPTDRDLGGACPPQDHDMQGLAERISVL
Nature of the assay: Selectivity interaction (Ambit KINOMEscan and KiNATiv profiling in Jurkat cells) EUB0000090b PRKD2. The class given is cell-based. The settings on record: at 1 µM.

For assay [4], the target named is T2, Serine/threonine-protein kinase TAO1 (Homo sapiens) (UniProt Q7L7X3).
T2 sequence (whole entry): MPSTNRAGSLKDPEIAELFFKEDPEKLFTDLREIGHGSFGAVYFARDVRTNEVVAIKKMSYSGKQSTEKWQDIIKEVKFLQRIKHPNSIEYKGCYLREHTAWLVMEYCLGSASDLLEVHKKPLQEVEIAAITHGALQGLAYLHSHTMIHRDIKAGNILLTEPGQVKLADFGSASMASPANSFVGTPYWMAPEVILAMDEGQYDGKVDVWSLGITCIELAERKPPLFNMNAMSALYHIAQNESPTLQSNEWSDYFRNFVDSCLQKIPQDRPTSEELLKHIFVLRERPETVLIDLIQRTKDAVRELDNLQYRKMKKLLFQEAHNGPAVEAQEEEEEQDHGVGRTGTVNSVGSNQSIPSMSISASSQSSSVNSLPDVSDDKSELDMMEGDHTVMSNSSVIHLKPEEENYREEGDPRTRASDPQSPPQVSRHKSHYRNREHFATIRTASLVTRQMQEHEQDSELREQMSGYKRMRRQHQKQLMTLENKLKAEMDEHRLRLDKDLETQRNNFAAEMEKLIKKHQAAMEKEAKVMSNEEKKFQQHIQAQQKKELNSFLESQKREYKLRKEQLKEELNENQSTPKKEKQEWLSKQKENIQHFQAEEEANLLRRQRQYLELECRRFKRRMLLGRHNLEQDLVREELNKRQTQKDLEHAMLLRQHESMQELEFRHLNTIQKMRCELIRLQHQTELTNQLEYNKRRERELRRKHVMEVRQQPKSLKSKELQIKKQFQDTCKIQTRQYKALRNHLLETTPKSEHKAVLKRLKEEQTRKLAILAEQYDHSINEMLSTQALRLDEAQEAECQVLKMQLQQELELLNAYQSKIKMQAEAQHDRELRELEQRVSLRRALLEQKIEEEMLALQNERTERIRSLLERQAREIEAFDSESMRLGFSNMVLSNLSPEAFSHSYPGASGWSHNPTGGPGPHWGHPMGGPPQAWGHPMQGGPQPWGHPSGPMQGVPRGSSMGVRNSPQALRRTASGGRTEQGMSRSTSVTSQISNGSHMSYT
Nature of the assay: Selectivity interaction (KinomeScan (DiscoverX)) EUB0001049a TAOK1. The settings on record: at 1 µM.

Assay [5] relates to Hepatocyte growth factor receptor (Homo sapiens), P08581 [M1250T]. Nature of the assay: (§1) Selectivity interaction (KinomeScan (DiscoverX)) EUB0000695a MET. The settings on record: at 100 nM.
Assay [6] concerns the target Hepatocyte growth factor receptor (Homo sapiens, UniProt P08581). Described as §1. The conditions noted are these: at 100 nM.
Assay [7] has as its system Hepatocyte growth factor receptor (Homo sapiens), P08581 [Y1235D]. The assay is described as §1. The settings on record: at 100 nM.
The target in assay [8] is Calcium/calmodulin-dependent protein kinase type II subunit gamma (Homo sapiens) (UniProt Q13555). Nature of the assay: Selectivity interaction (KinomeScan (DiscoverX)) EUB0000045b CAMK2G.
Assay [9] addresses Serine/threonine-protein kinase/endoribonuclease IRE2 (Homo sapiens) (UniProt Q76MJ5). Nature of the assay: Selectivity interaction (LanthaScreen Eu Kinase Binding Assay) EUB0001632a ERN2. The settings on record: at 10 µM.
In assay [10] the target is Insulin-like growth factor 1 receptor (Homo sapiens, UniProt P08069). Nature of the assay: Selectivity interaction (Kinase panel (33PanQinase(R) Activity Assay)) EUB0000877a IGF1R.
Assay [11] deals with T3, Calcium/calmodulin-dependent protein kinase type IV (Homo sapiens) (UniProt Q16566).
T3 sequence (whole entry): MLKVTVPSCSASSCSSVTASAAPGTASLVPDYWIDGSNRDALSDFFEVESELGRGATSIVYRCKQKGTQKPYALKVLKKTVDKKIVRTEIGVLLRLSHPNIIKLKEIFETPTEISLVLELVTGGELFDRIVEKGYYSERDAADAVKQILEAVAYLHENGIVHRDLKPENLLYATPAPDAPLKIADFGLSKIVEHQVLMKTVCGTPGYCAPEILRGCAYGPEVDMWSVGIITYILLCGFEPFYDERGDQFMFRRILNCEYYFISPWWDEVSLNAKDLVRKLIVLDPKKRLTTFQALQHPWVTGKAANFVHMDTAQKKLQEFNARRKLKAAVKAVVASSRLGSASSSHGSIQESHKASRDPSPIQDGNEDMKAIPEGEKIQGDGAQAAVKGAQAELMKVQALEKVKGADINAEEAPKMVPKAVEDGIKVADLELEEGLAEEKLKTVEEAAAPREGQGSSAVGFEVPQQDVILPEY
The conditions noted are these: at 10 µM.

SMILES strings stand for the structures. Where only a bound is given, the exact number is not on record here.

Chain of Mitogen-activated protein kinase 10 (P53779 whole entry): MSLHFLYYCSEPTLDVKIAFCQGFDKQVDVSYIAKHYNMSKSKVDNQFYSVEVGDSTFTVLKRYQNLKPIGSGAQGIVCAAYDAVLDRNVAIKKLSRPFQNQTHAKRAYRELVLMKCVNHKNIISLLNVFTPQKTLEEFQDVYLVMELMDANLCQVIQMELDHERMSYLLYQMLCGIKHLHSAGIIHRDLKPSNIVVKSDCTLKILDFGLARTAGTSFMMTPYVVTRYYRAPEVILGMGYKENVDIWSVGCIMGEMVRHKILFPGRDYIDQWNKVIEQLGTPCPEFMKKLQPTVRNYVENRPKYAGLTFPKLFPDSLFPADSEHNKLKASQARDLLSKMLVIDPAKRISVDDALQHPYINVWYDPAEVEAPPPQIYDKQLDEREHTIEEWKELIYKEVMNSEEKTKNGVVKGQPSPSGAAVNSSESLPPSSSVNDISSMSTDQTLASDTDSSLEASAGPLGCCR
Chain of Calcium/calmodulin-dependent protein kinase type II subunit gamma (Homo sapiens) (Q13555 whole entry): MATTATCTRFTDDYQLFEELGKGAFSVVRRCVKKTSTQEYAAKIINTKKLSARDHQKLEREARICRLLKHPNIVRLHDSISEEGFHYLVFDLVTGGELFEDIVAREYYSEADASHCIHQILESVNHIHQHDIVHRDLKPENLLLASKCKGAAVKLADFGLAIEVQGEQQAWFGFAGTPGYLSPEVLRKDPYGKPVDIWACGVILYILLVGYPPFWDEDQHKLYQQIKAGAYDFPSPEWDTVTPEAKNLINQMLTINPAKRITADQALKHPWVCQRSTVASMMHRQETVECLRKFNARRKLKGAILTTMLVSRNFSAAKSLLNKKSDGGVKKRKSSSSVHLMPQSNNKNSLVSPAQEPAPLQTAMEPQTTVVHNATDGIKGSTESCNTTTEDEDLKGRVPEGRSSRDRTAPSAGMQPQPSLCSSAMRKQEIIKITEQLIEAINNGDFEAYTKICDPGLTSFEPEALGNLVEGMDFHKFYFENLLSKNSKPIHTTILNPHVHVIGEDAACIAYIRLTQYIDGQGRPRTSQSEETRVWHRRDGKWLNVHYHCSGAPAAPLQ
Chain of Serine/threonine-protein kinase MRCK alpha (Homo sapiens) (Q5VT25 whole entry): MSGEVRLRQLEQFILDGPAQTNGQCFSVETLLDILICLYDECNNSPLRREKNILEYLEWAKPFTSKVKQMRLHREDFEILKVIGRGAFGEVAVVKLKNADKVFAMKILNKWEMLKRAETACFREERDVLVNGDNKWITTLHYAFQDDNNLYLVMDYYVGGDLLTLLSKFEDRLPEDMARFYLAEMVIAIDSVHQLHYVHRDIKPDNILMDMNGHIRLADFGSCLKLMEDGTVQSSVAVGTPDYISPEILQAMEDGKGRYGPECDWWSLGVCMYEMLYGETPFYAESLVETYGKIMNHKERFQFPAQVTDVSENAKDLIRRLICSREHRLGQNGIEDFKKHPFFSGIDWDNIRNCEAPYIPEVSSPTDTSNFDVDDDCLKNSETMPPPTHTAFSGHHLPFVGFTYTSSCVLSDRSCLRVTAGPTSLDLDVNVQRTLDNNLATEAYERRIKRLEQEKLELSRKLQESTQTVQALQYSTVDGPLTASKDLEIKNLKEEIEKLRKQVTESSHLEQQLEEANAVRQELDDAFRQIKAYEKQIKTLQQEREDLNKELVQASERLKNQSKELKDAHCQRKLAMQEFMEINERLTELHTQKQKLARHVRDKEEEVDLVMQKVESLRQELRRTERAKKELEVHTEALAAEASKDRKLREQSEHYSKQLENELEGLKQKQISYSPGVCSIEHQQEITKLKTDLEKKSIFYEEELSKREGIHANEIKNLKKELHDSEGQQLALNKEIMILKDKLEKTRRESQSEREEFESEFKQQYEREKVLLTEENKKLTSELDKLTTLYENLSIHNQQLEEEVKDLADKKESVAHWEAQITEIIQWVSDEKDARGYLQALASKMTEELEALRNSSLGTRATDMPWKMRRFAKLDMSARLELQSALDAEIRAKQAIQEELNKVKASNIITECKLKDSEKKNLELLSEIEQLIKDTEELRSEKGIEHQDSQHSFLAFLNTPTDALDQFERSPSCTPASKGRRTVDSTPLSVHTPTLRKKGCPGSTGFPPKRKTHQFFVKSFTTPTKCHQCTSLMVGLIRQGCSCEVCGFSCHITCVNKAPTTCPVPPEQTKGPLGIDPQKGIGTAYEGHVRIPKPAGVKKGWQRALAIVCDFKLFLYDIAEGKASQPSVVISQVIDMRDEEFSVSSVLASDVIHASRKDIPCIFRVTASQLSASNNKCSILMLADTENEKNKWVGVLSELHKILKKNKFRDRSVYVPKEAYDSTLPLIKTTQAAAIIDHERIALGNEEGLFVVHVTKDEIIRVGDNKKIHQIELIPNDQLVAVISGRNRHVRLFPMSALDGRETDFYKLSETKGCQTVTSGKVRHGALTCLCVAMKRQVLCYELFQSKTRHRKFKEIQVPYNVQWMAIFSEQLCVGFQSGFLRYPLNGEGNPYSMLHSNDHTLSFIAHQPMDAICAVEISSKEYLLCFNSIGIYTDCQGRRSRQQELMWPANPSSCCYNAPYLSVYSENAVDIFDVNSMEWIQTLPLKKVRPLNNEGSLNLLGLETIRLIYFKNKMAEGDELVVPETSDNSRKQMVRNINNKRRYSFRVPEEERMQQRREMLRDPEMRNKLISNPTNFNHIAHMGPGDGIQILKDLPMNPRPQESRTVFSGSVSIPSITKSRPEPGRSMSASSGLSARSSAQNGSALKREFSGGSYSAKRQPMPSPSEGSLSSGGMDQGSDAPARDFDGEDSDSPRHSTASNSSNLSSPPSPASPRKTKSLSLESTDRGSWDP
Chain of Hepatocyte growth factor receptor (Homo sapiens), P08581 [M1250T] (P08581 whole entry M1250T): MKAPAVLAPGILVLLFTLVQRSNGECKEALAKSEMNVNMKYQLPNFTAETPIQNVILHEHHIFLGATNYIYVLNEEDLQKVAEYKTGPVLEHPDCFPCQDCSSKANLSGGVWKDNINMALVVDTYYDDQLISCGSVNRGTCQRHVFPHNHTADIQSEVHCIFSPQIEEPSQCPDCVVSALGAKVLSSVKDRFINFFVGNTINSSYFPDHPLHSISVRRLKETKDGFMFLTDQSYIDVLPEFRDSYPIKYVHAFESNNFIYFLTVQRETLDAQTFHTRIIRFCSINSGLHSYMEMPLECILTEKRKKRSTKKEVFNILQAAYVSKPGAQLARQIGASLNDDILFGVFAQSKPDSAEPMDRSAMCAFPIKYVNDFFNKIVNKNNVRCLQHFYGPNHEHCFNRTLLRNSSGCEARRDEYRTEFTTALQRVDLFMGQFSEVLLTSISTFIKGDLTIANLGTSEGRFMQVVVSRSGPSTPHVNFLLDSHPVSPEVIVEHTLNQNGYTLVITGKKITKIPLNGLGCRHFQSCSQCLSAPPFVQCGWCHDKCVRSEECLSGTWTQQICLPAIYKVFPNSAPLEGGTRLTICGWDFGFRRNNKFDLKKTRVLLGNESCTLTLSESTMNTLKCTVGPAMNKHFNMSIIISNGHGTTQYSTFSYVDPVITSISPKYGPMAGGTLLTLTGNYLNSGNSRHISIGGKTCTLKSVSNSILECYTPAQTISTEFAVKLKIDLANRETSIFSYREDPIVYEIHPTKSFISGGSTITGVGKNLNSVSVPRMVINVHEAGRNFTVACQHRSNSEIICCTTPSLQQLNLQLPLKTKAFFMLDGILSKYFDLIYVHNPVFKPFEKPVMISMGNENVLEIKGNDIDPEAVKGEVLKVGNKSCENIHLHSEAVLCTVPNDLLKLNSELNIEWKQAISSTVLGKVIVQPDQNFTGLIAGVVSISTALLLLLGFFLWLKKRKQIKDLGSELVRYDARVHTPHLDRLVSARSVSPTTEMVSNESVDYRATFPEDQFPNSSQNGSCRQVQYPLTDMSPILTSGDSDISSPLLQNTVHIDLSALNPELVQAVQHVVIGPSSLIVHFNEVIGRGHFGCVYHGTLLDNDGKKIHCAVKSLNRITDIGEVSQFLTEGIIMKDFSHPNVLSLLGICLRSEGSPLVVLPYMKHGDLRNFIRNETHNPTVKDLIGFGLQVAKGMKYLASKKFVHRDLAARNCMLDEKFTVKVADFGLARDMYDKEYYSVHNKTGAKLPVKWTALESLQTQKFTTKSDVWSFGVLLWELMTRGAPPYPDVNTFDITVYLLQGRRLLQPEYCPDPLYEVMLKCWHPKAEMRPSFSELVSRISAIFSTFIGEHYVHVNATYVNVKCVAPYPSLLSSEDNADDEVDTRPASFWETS
Chain of Serine/threonine-protein kinase/endoribonuclease IRE2 (Homo sapiens) (Q76MJ5 35-926 limits assumed): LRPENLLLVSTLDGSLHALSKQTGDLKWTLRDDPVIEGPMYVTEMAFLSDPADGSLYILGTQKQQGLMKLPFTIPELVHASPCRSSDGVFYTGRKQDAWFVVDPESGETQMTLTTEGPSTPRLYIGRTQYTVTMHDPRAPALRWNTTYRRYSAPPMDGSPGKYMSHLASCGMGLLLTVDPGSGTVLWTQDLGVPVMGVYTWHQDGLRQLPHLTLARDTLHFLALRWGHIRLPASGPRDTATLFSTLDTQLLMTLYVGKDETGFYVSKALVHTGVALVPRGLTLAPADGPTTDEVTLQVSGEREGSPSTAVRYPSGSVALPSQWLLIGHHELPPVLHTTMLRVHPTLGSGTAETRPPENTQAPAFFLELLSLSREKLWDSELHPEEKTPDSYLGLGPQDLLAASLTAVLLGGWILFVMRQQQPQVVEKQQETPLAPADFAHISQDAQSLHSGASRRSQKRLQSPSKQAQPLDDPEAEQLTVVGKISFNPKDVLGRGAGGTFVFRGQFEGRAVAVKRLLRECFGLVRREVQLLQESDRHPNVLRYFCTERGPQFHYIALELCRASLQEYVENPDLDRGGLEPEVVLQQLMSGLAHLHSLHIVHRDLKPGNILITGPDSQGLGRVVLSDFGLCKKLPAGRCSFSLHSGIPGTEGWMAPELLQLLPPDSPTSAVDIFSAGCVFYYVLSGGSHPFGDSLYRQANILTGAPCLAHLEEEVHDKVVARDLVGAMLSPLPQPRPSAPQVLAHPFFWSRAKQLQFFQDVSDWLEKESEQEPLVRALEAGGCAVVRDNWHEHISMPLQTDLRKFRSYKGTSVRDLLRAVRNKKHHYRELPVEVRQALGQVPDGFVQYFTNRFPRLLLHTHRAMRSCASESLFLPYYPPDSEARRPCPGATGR

Take `Cc1ccc(-c2ccc3c(ccc4sc5c(c43)NC[C@@H](C)NC5=O)n2)cn1`: the % of inhibition in assay [1] is -21%.

Consider `C=CC(=O)Nc1cccc(C(=O)Nc2ccc(Nc3cc(-c4[nH]c(SC)nc4C)ccn3)cc2)c1`, for which the results for the % of control in assay [2] (at 1 µM) and in assay [2] (at 5 µM) were 3% and 0%, respectively.

In the case of `CN(C)C/C=C/C(=O)Nc1ccc(C(=O)N2CCCC(Nc3ncc(Cl)c(-c4c[nH]c5ccccc45)n3)C2)cc1` (stereo not drawn), the % of control in assay [3] was 55%.

`COc1cc(Nc2nc(C)cc(-c3cnn4nc(OC)ccc34)n2)cc(C(F)(F)F)c1` came in with a % of control in assay [4] of 96%.

Take `Cc1cc(F)c(C(=O)Nc2cccc(-c3nncn3C(C)C)n2)cc1-n1cnc(C2CC2)c1`: the % of control amounted to 100% in assay [5], 97% in [6] and 100% in assay [7].

Regarding `C=CC(=O)Nc1cc(-n2c(=O)ccc3cnc4ccc(-c5ccc(NS(C)(=O)=O)cc5)cc4c32)ccc1C`, the % of control in [8] (at 1 µM) is 100%; in [8] (at 10 µM), 96%.

As to `Cn1cc(-n2cnc3c(NCc4nc5cc(Cl)c(Cl)cc5[nH]4)nc(N4CCOCC4)nc32)cn1`, the % of inhibition in assay [9] was -30.9%.

Usually IC50 stands for the concentration that inhibits the measured activity by half. A low value points to inhibition by little substance. For `CCC(=O)N1CC[C@H](Nc2ncnc3c2CN(c2cnc(OC)c(C(F)(F)F)c2)CC3)C1` [LENIOLISIB], the half-maximal inhibitory concentration (IC50) in assay [10] is above 10 µM.

`COCC(=O)NC/C=C/c1ccc2ncnc(Nc3ccc(Oc4ccc(C)nc4)c(C)c3)c2c1` [CP-724714]: the % of control in assay [11] was 86%.

The values above are taken from ChEMBL document CHEMBL5465560, “Selectivity Literature for EUbOPEN Chemogenomic Library” (2024).
